pIC50, pKi: −log10 of the molar value. The source made the active and inactive calls. The calls are words filed in the database; no cut-off is given here.
Key:
D(2) dopamine receptor [1] = target: T1, D(2) dopamine receptor (Homo sapiens, UniProt P14416); assay: Displacement of [3H]-spiperone from human dopamine D2 receptor expressed in CHO-K1 cell membranes after 120 mins by liquid scintillation counter method
Cytochrome P450 1A2 = target: T2, Cytochrome P450 1A2 (Homo sapiens, UniProt P05177); assay: Inhibition of recombinant human CYP1A2 expressed in baculosomes preincubated for 10 mins followed by cofactor addition measured every minute for 10 mins using ethoxyresorufin as substrate by CYPEX assay
T2 sequence (P05177 whole entry): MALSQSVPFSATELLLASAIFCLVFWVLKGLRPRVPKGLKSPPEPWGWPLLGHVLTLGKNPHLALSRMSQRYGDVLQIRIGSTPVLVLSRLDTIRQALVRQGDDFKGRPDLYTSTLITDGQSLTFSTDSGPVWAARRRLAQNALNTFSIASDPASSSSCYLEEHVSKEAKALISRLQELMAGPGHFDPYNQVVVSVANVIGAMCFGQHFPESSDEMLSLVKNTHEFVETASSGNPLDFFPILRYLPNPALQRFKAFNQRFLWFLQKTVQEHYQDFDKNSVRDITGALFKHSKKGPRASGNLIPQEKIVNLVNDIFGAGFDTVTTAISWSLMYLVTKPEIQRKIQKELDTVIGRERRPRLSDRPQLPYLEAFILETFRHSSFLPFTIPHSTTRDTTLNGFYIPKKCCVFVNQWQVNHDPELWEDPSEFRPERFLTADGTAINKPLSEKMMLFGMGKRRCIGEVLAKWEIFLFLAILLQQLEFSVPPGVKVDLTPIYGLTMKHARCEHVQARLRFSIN

Cytochrome P450 2C9 = Cytochrome P450 2C9 (Homo sapiens, UniProt P11712); assay: Inhibition of recombinant human CYP2C9 expressed in baculosomes preincubated for 10 mins followed by cofactor addition measured every minute for 10 mins using 7-methoxy-4-trifluoromethylcoumarin-3-acetic acid as substrate by CYPEX assay
Chain of Cytochrome P450 2C9 (P11712 whole entry): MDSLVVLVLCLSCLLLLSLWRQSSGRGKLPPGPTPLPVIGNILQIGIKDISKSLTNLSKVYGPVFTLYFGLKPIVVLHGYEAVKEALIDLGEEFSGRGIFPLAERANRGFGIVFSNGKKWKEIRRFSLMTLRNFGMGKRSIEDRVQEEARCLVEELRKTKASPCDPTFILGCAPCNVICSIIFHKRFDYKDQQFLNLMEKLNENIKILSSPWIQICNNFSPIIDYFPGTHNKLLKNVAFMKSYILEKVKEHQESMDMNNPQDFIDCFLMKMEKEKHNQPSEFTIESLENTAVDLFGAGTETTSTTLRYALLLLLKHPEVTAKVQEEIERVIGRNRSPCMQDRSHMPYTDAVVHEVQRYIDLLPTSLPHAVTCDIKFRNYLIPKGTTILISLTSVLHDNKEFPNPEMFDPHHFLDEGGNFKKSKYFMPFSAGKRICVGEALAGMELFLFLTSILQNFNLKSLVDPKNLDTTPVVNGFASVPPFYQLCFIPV

Cytochrome P450 2C19 = Cytochrome P450 2C19 (Homo sapiens, UniProt P33261); assay: Inhibition of recombinant human CYP2C19 expressed in baculosomes preincubated for 10 mins followed by cofactor addition measured every minute for 10 mins using 3-butyryl-7-methoxycoumarin as substrate by CYPEX assay
Chain of Cytochrome P450 2C19 (P33261 whole entry): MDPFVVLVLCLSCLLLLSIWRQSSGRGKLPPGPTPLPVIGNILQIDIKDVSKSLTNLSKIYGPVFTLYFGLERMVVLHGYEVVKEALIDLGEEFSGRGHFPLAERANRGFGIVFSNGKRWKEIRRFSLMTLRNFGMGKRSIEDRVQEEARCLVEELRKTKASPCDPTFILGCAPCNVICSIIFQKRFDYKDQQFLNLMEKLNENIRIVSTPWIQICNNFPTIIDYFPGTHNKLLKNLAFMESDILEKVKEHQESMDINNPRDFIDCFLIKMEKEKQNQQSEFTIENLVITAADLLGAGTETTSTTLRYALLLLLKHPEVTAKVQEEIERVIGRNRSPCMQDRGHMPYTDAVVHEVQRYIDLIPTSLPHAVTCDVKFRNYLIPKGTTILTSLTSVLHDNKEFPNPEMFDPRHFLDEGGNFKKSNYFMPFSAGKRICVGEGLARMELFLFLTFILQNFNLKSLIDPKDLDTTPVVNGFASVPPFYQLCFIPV

Cytochrome P450 2D6 = Cytochrome P450 2D6 (Homo sapiens, UniProt P10635); assay: Inhibition of recombinant human CYP2D6 expressed in baculosomes preincubated for 10 mins followed by cofactor addition measured every minute for 10 mins using 4-methylaminomethyl-7-methoxycoumarin as substrate by CYPEX assay
Chain of Cytochrome P450 2D6 (P10635 whole entry): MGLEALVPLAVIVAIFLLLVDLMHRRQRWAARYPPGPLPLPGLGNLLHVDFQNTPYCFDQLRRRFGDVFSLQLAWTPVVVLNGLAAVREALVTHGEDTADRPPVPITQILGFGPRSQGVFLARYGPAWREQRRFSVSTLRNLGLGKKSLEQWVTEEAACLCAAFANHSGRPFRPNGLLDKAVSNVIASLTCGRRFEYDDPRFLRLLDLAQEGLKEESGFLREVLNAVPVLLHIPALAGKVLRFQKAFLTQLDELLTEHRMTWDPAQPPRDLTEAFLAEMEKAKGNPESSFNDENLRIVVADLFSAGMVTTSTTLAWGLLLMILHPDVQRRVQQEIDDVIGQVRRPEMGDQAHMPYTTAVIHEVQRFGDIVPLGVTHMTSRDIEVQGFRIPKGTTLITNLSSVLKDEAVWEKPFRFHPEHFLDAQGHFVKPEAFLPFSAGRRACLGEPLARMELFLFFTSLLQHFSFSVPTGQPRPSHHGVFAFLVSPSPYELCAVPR

Cytochrome P450 3A4 [2] = target: T3, Cytochrome P450 3A4 (Homo sapiens, UniProt P08684); assay: Inhibition of recombinant human CYP3A4 expressed in baculosomes preincubated for 10 mins followed by cofactor addition measured every minute for 10 mins using diethoxyflourescein as substrate by CYPEX assay
T3 sequence (P08684 whole entry): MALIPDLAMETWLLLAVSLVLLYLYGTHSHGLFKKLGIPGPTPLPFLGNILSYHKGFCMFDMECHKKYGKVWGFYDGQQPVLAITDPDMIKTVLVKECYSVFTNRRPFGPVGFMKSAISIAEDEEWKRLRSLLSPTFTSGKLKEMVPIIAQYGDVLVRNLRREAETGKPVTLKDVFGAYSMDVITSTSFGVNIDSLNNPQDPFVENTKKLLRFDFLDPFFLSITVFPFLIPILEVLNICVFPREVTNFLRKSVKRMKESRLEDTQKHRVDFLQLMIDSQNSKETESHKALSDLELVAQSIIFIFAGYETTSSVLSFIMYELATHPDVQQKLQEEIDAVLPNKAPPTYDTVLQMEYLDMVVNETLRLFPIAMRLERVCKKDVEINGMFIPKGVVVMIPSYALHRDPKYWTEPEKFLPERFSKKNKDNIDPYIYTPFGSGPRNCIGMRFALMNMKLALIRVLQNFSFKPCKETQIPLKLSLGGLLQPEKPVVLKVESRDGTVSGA

Cytochrome P450 3A4 [3] = target: T3, Cytochrome P450 3A4; assay: Inhibition of recombinant human CYP3A4 expressed in baculosomes preincubated for 10 mins followed by cofactor addition measured every minute for 10 mins using 7-benzyloxyquinoline as substrate by CYPEX assay
in vitro [4] = conditions: rat, liver microsomes, CLH
in vitro [5] = conditions: human, liver microsomes, CLH
[6] = target: D(1A) dopamine receptor (Homo sapiens) (UniProt P21728); assay: Binding affinity to dopamine D1 receptor (unknown origin)
Chain of D(1A) dopamine receptor (Homo sapiens) (P21728 whole entry): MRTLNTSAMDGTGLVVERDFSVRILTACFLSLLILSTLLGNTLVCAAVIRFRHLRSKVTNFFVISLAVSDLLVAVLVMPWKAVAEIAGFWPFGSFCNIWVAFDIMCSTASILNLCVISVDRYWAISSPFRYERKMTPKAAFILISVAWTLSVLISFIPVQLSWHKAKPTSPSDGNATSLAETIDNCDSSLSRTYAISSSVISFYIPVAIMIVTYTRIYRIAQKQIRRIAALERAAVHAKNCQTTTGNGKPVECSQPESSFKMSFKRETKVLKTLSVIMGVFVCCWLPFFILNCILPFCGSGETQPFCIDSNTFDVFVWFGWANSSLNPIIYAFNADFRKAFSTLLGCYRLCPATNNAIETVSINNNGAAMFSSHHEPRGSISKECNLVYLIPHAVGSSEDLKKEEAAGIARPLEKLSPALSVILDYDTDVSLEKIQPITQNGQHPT

[7] = Fraction absorbed in portal vein cannulated Sprague-Dawley rat model; conditions: in vivo
[8] = Volume of distribution at steady state in portal vein cannulated Sprague-Dawley rat model; conditions: in vivo
[9] = Clearance in portal vein cannulated Sprague-Dawley rat blood; conditions: whole blood
[10] = Half life in portal vein cannulated Sprague-Dawley rat model; conditions: in vivo
[11] = Fraction unbound in Sprague-Dawley rat blood
[12] = Fraction unbound in Sprague-Dawley rat brain
[13] = Permeability across apical to basolateral side in human Caco2 cells; conditions: for Papp A→B: Caco-2, permeability; for permeability: Caco-2
D(3) dopamine receptor = D(3) dopamine receptor (Homo sapiens, UniProt P35462); assay: Displacement of [3H]-spiperone from human dopamine D3 receptor expressed in CHO-K1 cell membranes after 90 mins by liquid scintillation counter method
Chain of D(3) dopamine receptor (P35462 whole entry): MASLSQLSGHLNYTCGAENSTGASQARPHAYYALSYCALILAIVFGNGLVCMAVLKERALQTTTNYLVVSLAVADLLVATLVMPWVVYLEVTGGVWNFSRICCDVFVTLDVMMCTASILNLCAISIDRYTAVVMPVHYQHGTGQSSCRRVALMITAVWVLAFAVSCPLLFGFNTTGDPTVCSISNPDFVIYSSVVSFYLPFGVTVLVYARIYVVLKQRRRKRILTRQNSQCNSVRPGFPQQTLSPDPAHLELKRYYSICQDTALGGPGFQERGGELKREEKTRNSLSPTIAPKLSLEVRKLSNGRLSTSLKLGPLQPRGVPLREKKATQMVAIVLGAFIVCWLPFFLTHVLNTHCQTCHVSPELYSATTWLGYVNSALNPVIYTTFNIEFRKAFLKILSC

[14] = target: T4, Muscarinic acetylcholine receptor M1 (Homo sapiens, UniProt P11229); assay: Antagonist activity at recombinant human muscarinic M1 receptor expressed in CHO-K1 cells assessed as inhibition of acetylcholine induced calcium mobilization preincubated for 10 mins followed by acetylcholine addition measured after 1 hr by fluo-4 AM dye-based FLIPR assay; format: functional, cell-based
T4 sequence (P11229 whole entry): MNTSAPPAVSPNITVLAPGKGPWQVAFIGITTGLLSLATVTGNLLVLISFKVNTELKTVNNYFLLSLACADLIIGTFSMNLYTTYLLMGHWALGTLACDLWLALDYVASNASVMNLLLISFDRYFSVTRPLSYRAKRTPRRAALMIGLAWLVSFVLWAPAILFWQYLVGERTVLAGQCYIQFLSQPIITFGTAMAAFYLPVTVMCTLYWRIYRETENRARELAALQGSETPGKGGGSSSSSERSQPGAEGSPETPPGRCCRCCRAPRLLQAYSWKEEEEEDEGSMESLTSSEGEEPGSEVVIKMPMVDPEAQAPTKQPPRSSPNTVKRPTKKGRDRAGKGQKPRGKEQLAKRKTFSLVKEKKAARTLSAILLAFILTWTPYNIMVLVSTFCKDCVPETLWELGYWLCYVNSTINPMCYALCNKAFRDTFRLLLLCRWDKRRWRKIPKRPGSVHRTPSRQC

[15] = target: Muscarinic acetylcholine receptor M3 (Homo sapiens, UniProt P20309); assay: Antagonist activity at recombinant human muscarinic M3 receptor expressed in CHO-K1 cells assessed as inhibition of acetylcholine induced calcium mobilization preincubated for 10 mins followed by acetylcholine addition measured after 1 hr by fluo-4 AM dye-based FLIPR assay; format: functional, cell-based
Chain of Muscarinic acetylcholine receptor M3 (P20309 whole entry): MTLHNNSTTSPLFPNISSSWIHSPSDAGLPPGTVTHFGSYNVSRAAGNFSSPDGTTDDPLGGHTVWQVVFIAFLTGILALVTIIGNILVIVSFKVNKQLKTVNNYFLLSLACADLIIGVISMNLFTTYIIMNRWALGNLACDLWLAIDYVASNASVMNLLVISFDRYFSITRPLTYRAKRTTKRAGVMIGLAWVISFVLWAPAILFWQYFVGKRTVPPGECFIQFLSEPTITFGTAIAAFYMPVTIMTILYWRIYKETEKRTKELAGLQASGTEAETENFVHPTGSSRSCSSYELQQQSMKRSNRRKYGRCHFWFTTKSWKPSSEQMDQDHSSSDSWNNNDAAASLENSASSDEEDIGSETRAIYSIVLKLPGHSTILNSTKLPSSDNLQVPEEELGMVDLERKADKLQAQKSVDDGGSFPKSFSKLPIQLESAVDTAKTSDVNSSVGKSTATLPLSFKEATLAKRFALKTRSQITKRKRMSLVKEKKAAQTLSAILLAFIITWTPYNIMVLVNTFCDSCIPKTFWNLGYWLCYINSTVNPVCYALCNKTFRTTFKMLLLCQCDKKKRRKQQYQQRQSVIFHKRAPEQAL

Liver microsome [16] = conditions: rat, microsomes, 0.5 µM
Liver microsome [17] = conditions: human, microsomes, 0.5 µM
Homo sapiens = species: Homo sapiens; assay: Selectivity ratio of IC50 for human ERG to Ki for human dopamine D3 receptor
[18] = Solubility of compound; format: physicochemical
[19] = target: Voltage-gated inwardly rectifying potassium channel KCNH2 (Homo sapiens, UniProt Q12809); assay: Inhibition of human ERG tail current expressed in HEK293 cells after 5 mins by patch clamp assay
Chain of Voltage-gated inwardly rectifying potassium channel KCNH2 (Q12809 whole entry): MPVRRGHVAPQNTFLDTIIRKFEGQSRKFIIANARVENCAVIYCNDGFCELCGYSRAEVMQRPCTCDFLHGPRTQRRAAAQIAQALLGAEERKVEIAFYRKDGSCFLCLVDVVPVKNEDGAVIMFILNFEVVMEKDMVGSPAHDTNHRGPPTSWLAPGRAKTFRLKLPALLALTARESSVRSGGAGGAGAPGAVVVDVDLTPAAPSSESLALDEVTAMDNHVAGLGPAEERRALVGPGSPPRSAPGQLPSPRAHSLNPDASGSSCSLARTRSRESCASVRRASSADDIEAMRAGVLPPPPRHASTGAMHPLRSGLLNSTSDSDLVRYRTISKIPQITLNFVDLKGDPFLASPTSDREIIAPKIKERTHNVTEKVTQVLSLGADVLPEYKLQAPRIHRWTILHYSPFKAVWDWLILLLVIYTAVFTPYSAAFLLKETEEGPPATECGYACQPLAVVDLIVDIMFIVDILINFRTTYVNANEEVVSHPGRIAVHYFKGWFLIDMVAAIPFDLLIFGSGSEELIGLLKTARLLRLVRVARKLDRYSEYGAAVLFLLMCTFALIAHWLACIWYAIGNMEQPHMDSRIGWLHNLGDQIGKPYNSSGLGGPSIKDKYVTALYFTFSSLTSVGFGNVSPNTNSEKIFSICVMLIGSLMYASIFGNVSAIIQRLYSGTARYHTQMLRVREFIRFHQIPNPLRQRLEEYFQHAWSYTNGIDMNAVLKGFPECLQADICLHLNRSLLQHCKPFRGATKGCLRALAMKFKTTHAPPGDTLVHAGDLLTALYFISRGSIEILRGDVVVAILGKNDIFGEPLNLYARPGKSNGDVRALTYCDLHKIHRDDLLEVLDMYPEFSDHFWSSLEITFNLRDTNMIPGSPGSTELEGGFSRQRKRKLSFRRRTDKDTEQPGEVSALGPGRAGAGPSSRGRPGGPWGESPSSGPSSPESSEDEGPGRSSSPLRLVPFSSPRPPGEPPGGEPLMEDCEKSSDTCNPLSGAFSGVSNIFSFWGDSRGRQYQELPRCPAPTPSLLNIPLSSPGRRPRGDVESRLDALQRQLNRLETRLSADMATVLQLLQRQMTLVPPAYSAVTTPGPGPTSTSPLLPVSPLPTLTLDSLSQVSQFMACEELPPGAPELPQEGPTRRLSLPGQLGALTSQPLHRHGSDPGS

in vivo = conditions: Sprague-Dawley, rat, po
[20] = target: T5, D(4) dopamine receptor (Homo sapiens) (UniProt P21917); assay: Binding affinity to dopamine D4 receptor (unknown origin)
T5 sequence (whole entry): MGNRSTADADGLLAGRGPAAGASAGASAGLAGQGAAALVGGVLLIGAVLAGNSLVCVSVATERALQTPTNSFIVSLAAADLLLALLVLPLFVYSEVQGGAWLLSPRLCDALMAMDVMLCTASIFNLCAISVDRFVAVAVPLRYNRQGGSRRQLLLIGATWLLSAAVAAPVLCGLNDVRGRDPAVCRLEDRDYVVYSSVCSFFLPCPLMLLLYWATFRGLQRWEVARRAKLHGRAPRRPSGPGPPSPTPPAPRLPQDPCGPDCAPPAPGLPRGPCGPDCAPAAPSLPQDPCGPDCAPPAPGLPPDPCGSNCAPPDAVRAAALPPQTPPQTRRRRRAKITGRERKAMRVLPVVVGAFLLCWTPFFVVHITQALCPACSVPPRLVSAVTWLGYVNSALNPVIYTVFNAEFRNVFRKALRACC

D(2) dopamine receptor [21] = target: T1, D(2) dopamine receptor; assay: Antagonist activity at human dopamine D2L receptor expressed in CHO cells assessed as inhibition of dopamine-mediated Ca+2 stimulation pretreated for 10 mins followed by addition of dopamine by fluo-4 AM dye-based FLIPR assay; format: cell-based

T1 sequence (P14416 whole entry): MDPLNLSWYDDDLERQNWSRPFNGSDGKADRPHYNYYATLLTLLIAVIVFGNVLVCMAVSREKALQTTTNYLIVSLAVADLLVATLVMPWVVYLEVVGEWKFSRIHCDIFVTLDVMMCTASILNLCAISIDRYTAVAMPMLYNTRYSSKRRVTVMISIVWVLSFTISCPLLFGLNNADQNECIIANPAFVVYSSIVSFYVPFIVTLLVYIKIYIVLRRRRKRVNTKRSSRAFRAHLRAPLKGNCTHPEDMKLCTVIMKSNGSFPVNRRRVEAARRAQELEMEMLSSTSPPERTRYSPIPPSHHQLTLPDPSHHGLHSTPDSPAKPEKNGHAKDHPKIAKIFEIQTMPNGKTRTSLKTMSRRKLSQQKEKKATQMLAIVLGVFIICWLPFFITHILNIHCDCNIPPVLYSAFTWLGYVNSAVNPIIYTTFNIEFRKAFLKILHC

SMILES	pKi (D(2) dopamine receptor [1])	pIC50 (Cytochrome P450 1A2)	pIC50 (Cytochrome P450 2C9)	pIC50 (Cytochrome P450 2C19)	pIC50 (Cytochrome P450 2D6)	pIC50 (Cytochrome P450 3A4 [2])	pIC50 (Cytochrome P450 3A4 [3])	microsomal CLint at 0.5 µM (in vitro [4])	microsomal CLint at 0.5 µM (in vitro [5])	Activity [6]	pKi (D(3) dopamine receptor)	also measured
Cc1ncoc1-c1nnc(SCCCN2CC3CCN(c4ccc(F)cc4)C3C2)n1C (stereo in doubt; 9a)	6.90	< 5.30	< 5.30	< 5.30	< 5.30	< 5.30	< 5.30	136 µL/min/mg	27 µL/min/mg			Fa [7]: 22%; Vd [8]: 1.2 L/kg; clearance [9]: 53 mL/min/kg; half-life [10]: 18 min; fraction unbound [11]: 0.14; fraction unbound [12]: 0.095; Papp A→B [13]: 17.5 ×10⁻⁶ cm/s
Cn1c(SCCCN2CC3CCN(c4ccc(C(F)(F)F)cc4)C3C2)nnc1-c1ccc(=O)n(C)c1 (stereo in doubt; 57b) [listing 1 of 2 here]											8.30	pKi [14]: 6.42; pKi [15]: 6.32; Papp A→B [13]: 5.3 ×10⁻⁶ cm/s; CLH (Liver microsome [16]): 30 µL/min; CLH (Liver microsome [17]): 111 µL/min
Cn1c(SCCCN2CC3CCN(c4ccc(C(F)(F)F)cc4)C3C2)nnc1-c1cc[nH]c(=O)c1 (racemic)												Selectivity ratio (Homo sapiens): > 100
Cc1ncoc1-c1nnc(SCCCN2CC3CCN(c4ccccc4)C3C2)n1C.Cl (stereo not given)												solubility [18]: > 2000 µg/mL
Cn1c(SCCCN2CC3CCN(c4ccc(C(F)(F)F)cc4)C3C2)nnc1-c1ccc(=O)n(C)c1 (stereo in doubt; 57a)								23 µL/min/mg	152 µL/min/mg			permeability [13]: 3.9 ×10⁻⁶ cm/s
Cn1c(SCCCN2CC3CCN(c4ccc(C(F)(F)F)cc4)C3C2)nnc1-c1cc[nH]c(=O)c1 (stereo in doubt; 55b)										inactive		Selectivity ratio (Homo sapiens): > 250
Cc1ncoc1-c1nnc(SCCCN2CC3CCN(c4cccc(F)c4)C3C2)n1C (racemic)	6.80										8.50	pIC50 [19]: 6.60; Selectivity ratio (Homo sapiens): 100
Cc1ncoc1-c1nnc(SCCCN2CC3CCN(c4ccc(C(F)(F)F)cc4)C3C2)n1C.Cl (stereo not given)												solubility [18]: 300 µg/mL
Cn1c(SCCCN2CC3CCN(c4ccc(C(F)(F)F)cc4)C3C2)nnc1-c1ccc(=O)n(C)c1 (stereo in doubt; 57b) [listing 2 of 2 here]										inactive		Activity [20]: inactive
CC(C)Oc1ccccc1N1CCC2CN(CCCSc3nnc(-c4cnccn4)n3C)CC21 (stereo in doubt; 35b)	6.60	< 6.00	< 6.00	< 6.00	< 6.00	< 6.00	< 6.00	> 750 µL/min/mg	> 750 µL/min/mg		8.10	fraction unbound [11]: 0.024; fraction unbound [12]: 0.13
Cn1c(SCCCN2CC3CCN(c4ccccc4C(F)(F)F)C3C2)nnc1-c1cccnc1 (stereo in doubt; 52a) [listing 1 of 2 here]										inactive		Activity [20]: inactive
Cn1c(SCCCN2CC3CCN(c4ccccc4)C3C2)nnc1C1CCOCC1 (stereo in doubt; 62a) [listing 2 of 2 here]										inactive		Activity [20]: inactive
Cc1ncoc1-c1nnc(SCCCN2CC3CCN(c4cccc(C#N)c4)C3C2)n1C (stereo in doubt; 12a)	7.50										9.20	pIC50 [19]: > 7.00; solubility [18]: > 2200 µg/mL
Cc1ncoc1-c1nnc(SCCCN2CC3CCN(c4ccccc4)C3C2)n1C (stereo in doubt; 6b) [listing 2 of 2 here]	6.60	< 6.00	< 6.00	< 6.00	< 6.00	< 6.00	< 6.00	364 µL/min/mg	88 µL/min/mg			pIC50 [19]: 5.90; pKi (D(2) dopamine receptor [21]): 6.80; pKi [14]: 6.00; pKi [15]: 5.90; Fa [7]: 50%; Vd [8]: 2.2 L/kg; clearance [9]: 80.1 mL/min/kg; half-life [10]: 18 min

Now from value to compound, other results behind:

pKi (D(2) dopamine receptor [1])	pIC50 (Cytochrome P450 1A2)	pIC50 (Cytochrome P450 2C9)	pIC50 (Cytochrome P450 2C19)	pIC50 (Cytochrome P450 2D6)	pIC50 (Cytochrome P450 3A4 [2])	pIC50 (Cytochrome P450 3A4 [3])	microsomal CLint at 0.5 µM (in vitro [4])	microsomal CLint at 0.5 µM (in vitro [5])	Activity [6]	pKi (D(3) dopamine receptor)	SMILES	also measured
6.80	< 5.70	< 5.70	< 5.70	< 5.70	< 5.70	< 5.70	> 700 µL/min/mg	> 700 µL/min/mg			Cn1c(SCCCN2CC3CCN(c4ccc(C(F)(F)F)cc4)C3C2)nnc1-c1cnccn1 (stereo in doubt; 17b)	
									inactive		Cc1ncoc1-c1nnc(SCCCN2CC3CCN(c4ccccc4)C3C2)n1C (stereo in doubt; 6b) [listing 1 of 2 here]	
6.50	< 6.00	< 6.00	< 6.00	< 6.00	< 6.00	< 6.00	> 650 µL/min/mg	> 650 µL/min/mg		8.40	Cn1c(SCCCN2CC3CCN(c4ccc(F)cc4F)C3C2)nnc1-c1cnccn1 (stereo in doubt; 36b)	
	< 4.77	< 4.77	< 4.77	< 4.77	< 4.77	< 4.77	272 µL/min/mg	26 µL/min/mg		8.20	Cn1c(SCCCN2CC3CCN(c4ccccc4)C3C2)nnc1C1CCOCC1 (stereo in doubt; 62a) [listing 1 of 2 here]	pKi [14]: 5.99; pKi [15]: 5.84; solubility [18]: > 2000 µg/mL; Fa [7]: 5.5%; Vd [8]: 0.44 L/kg; clearance [9]: 20 mL/min/kg; half-life [10]: 18 min; fraction unbound [11]: 0.31; fraction unbound [12]: 0.33; permeability [13]: permeable; bioavailability (in vivo): < 1%
									inactive		Cc1ncoc1-c1nnc(SCCCN2CC3CCN(c4ccc(C(F)(F)F)cc4F)C3C2)n1C (stereo in doubt; 8b)	
6.40	< 5.52	< 5.52	< 5.52	< 5.52	< 5.52	6.04	> 750 µL/min/mg	> 750 µL/min/mg			Cn1c(SCCCN2CC3CCN(c4ccccc4C(F)(F)F)C3C2)nnc1-c1cccnc1 (stereo in doubt; 52a) [listing 2 of 2 here]	pKi [14]: 6.20; pKi [15]: 5.66

— ChEMBL document CHEMBL3774368, “1,2,4-Triazolyl octahydropyrrolo[2,3-b]pyrroles: A new series of potent and selective dopamine D3 receptor antagonists” (Bioorg Med Chem, 2016)
